{"source": "patent US20230204569A1", "about": "“ANALYSIS DEVICE” (INCYTON GMBH, priority 2020, published 2023)", "key": {"[1]": {"tested_on": "Mouse fibroblast L929 cells", "description": "A mitochondrial stress test was performed in a device of the present invention. Mouse fibroblast L929 cells were cultivated in the wells of a micro-titer plate at 37° C. and provided with fresh media in time intervals of 20 min.\nA measurement cycle involved addition of following compounds at the indicated time points:\nt=60 min: Addition of 1 μM oligomycin A\nt=140 min: Addition of 1 μM antimycin A and 1 μM rotenone"}, "[2]": {"tested_on": "L929 mouse fibroblast cells", "experiment": "Toxicology assay: OCR, ECAR and morphology under SLS", "format": "cell-based", "method": "L929 mouse fibroblast cells were investigated under the influence of the reference toxicant sodium lauryl sulfate (SLS). The test settings included 12 h of pretreatment and 12 h of treatment with different concentrations of SLS. Throughout the assay, oxygen consumption and extracellular acidification, as well as morphology based on regular microscope images, were recorded."}, "[3]": {"conditions": "77.8 μg/ml SLS, first 3 h after SLS addition"}}, "data": [{"smiles": "N#CC(C#N)=NNc1ccc(OC(F)(F)F)cc1", "note": "[FCCP, carbonyl cyanide p-(trifluoromethoxy) phenylhydrazone]", "values": [{"measurement": "Maximum respiration (OCR) as % of the basal respiration", "setting": "[1]; 0.13 μM and 0.25 μM FCCP added at t=100 min after 1 μM oligomycin A", "result": 131, "unit": "%"}, {"measurement": "reserve capacity", "setting": "[1]; maximum respiration under FCCP minus basal respiration", "result": 31, "unit": "%"}]}, {"smiles": "CCCCCCCCCCCCOS(=O)(=O)[O-].[Na+]", "note": "[SLS, sodium lauryl sulfate]", "values": [{"measurement": "outcome after continuation of the treatment (12 h treatment)", "setting": "[2]; 77.8 μg/ml SLS, continued treatment", "result": "cell death and a drop in all metabolic values"}, {"measurement": "acidification (ECAR)", "setting": "[2]; [3]", "result": "increases"}, {"measurement": "oxygen uptake (OCR)", "setting": "[2]; [3]", "result": "reduced"}, {"measurement": "OCRs and ECARs dose and time dependence", "setting": "[2]; 77.8 μg/ml and 778 μg/ml SLS", "result": "clear dose- and time-dependent reaction"}]}]}
